Results reported in patent US20090258873A1, “Novel tetrahydropyridothiophenes” (priority 2005, published 2009).

What was measured:
[1] = system: RKO (RKOp27) human colon adenocarcinoma cells; assay: Alamar Blue cell viability assay, anti-proliferative/cytotoxic activity on proliferating RKOp27 cells; type: cell-based; conditions: no Ponasterone A, 72 hours incubation, read-out: IC50 RKO p27 uninduced (proliferating)
Protocol: The anti-proliferative I cytotoxic activity of the compounds described herein, can be tested on subclones of RKO (RKOp27) human colon adenocarcinoma cells (Schmidt et al., Oncogene 19, 2423-2429; 2000) using the Alamar Blue cell viability assay (described in O'Brien et al. Eur J Biochem 267, 5421-5426, 2000). The compounds are dissolved as 20 mM solutions in dimethylsulfoxide (DMSO) and subsequently diluted in semi-logarithmic steps. DMSO dilutions are further diluted 1:100 into Dulbecco's modified Eagle's medium (DMEM) containing 10% fetal calf serum to a final concentration twice as much as the final concentration in the test. RKO subclones are seeded into 96 well flat bottom plates at a density of 5000 cells per well in a volume of 50 μl per well. 24 hours after seeding the 50 μl each of the compound dilutions in DMEM medium are added into each well of the 96 Well plate. Each compound dilution is tested as quadruplicates. Wells containing untreated control cells are filled with 50 μl DMEM medium containing 1% DMSO. The cells are then incubated with the substances for 72 hours at 37° C. in a hunified atmosphere containing 5% carbon dioxide. To determine the viability of the cells, 10 μl of an Alamar Blue solution (Biosource) are added and the fluorescence is measured at an extinction of 544 nm and an emission of 590 nm. For the calculation of the cell viability the emission value from untreated cells is set as 100% viability and the emission rates of treated cells are set in relation to the values of untreated cells. Viabilities are expressed as % values.
The corresponding IC50 values of the compounds for anti-proliferative/cytotoxic activity are determined from the concentration-effect curves.
Representative IC50 values for anti-proliferation/cytotoxicity determined in the mentioned assay follow from the following table A, in which the numbers of the compounds correspond to the numbers of the examples.

[2] = system: RKO colon adenocarcinoma cells (RKOp27) arrested by ectopic p27Kip1; assay: Alamar Blue cell viability assay on RKOp27 cells arrested by p27Kip1 expression induced with Ponasterone A (cell cycle specific mode of action); type: cell-based; conditions: Homo sapiens, RKOp27 cells arrested by p27Kip1 induced with 10 μM Ponasterone A, 72 hours incubation, read-out: IC50 RKO p27 induced (arrested)
Protocol: To determine the cell cycle specific mode of action, subclones of RKO colon adenocarcinoma cells (RKOp27 or RKOp21 as described by Schmidt et al. in Oncogene 19, 2423-2429; 2000) are seeded into 96 well flat bottom plates at a density of 15000 cells per well in a volume of 50 μl per well in DMEM growth medium with 10% FCS containing 10 μM Ponasterone A. 24 hours after seeding the 50 μl each of the compound dilutions in DMEM medium are added into each well of the 96 Well plate. Each compound dilution is tested as quadruplicates. Wells containing untreated control cells are filled with 50 μl DMEM medium containing 1% DMSO. The cells are then incubated with the substances for 72 hours at 37° C. in a humidified atmosphere containing 5% carbon dioxide. To determine the viability of the cells, 10 μl of an Alamar Blue solution (Biosource) are added and the fluorescence was measured at an extinction of 544 nm and an emission of 590 nm. For the calculation of the cell viability the emission value from untreated cells is set as 100% viability and the emission rates of treated cells are set in relation to the values of untreated cells. Viabilities are expressed as % values. Viability is compared of proliferating cells grown in the absence of the inducer Ponasterone A, versus viability of cells arrested by the expression of ectopic p27Kip1 induced by Ponasterone A.

SMILES | IC50 [1] [nM] | IC50 [2] [nM]
N#Cc1c(NC(=O)CCc2ccccc2)sc2c1CCN(C(=O)Cc1cccnc1)C2 [Example 2, N-[3-Cyano-6-(2-pyridin-3-yl-ethanoyl)-4,5,6,7-tetrahydro-thieno[2,3-]pyridin-2-yl]-3-phenyl-propionamide] | ≤ 300 | > 100000
Cc1cn(CCC(=O)N2CCc3c(sc(NC(=O)CCc4ccccc4)c3C#N)C2)cn1 [Example 45, N-[3-Cyano-6-[3-(4-methyl-imidazol-1-yl)-propanoyl]-4,5,6,7-tetrahydro-thieno[2,3-c]pyridin-2-yl]-3-phenyl-propionamide] | 300 to 2000 | ≥ 10000
N#Cc1c(NC(=O)CCc2ccccc2)sc2c1CCN(C(=O)CCc1ccccn1)C2 [Example 30, N-[3-Cyano-6-(3-pyridin-2-yl-propanoyl)-4,5,6,7-tetrahydro-thieno[2,3-c]pyridin-2-yl]-3-phenyl-propionamide] | ≤ 300 | > 100000
N#Cc1c(NC(=O)CCC2CCCCC2)sc2c1CCN(C(=O)CCn1ccnc1)C2 [Example 58] | 300 to 2000 | > 100000
N#Cc1c(NC(=O)CCc2ccccc2)sc2c1CCN(C(=O)Cc1ccccn1)C2 [Example 3, N-[3-Cyano-(2-pyridin-2-yl-ethanoyl)-4,5,6,7-tetrahydro-thieno[2,3-]pyridin-2-yl]-3-phenyl-propionamide] | ≤ 300 | > 100000
CC(=O)OCC(=O)N1CCc2c(sc(NC(=O)CCc3ccccc3)c2C#N)C1 [Example 7, Acetic acid 2-[3-cyano-2-(3-phenyl-propanoylamino)-4,7-dihydro-5H-thieno[2,3-c]pyridin-6-yl]-2-oxo-ethyl ester] | ≤ 300 | > 100000
CCCC(=O)N1CCc2c(sc(NC(=O)CCc3ccccc3)c2C#N)C1 [Example 28, N-(6-Butyryl-3-cyano-4,5,6,7-tetrahydro-thieno[2,3-c]pyridin-2-yl)-3-phenyl-propionamide] | ≤ 300 | > 100000
CC(CC(=O)Nc1sc2c(c1C#N)CCN(C(=O)CCc1nccn1C)C2)c1ccccc1 (racemic) [Example 34, (RS)—N-{3-Cyano-6-[3-(1-methyl-1H-imidazol-2-yl)-propanoyl]-4,5,6,7-tetrahydro-thieno[2,3-c]pyridin-2-yl}-3-phenyl-butyramide] | ≤ 300 | ≥ 10000
CC(CC(=O)Nc1sc2c(c1C#N)CCN(C(=O)CCc1ccncc1)C2)c1ccccc1 (racemic) [Example 36, (RS)—N-[3-Cyano-6-(3-pyridin-4-yl-propanoyl)-4,5,6,7-tetrahydro-thieno[2,3-c]pyridin-2-yl]-3-phenyl-butyramide] | 300 to 2000 | ≥ 10000
Cn1ccnc1CCC(=O)N1CCc2c(sc(NC(=O)CCc3ccccc3)c2C#N)C1 [Example 35, N-{3-Cyano-4-[3-(1-methyl-1H-imidazo-2-yl)-propanoyl]-4,5,6,7-tetrahydro-thieno[2,3-c]pyridin-2-yl}-3-phenyl-propionamide] | ≤ 300 | ≥ 10000
CN1CCN(CCC(=O)N2CCc3c(sc(NC(=O)CCc4ccccc4)c3C#N)C2)CC1 [Example 17, N-[3-Cyano-6-[3-(4-methyl-piperazin-1-yl)-propanoyl]-4,5,6,7-tetrahydro-thieno[2,3-c]pyridin-2-yl]-3-phenyl-propionamide] | 300 to 2000 | ≥ 40000
CC(CC(=O)Nc1sc2c(c1C#N)CCN(C(=O)Cc1cccnc1)C2)c1ccccc1 (racemic) [Example 23, (RS)—N-[3-Cyano-6-(2-pyridin-3-yl-ethanoyl)-4,5,6,7-tetrahydro-thieno[2,3-c]pyridin-2-yl]-3-phenyl-butyramide] | ≤ 300 | > 100000
N#Cc1c(NC(=O)CCc2ccccc2)sc2c1CCN(C(=O)Cc1ccncc1)C2 [Example 20, N-[3-Cyano-6-(2-pyridin-4-yl-ethanoyl)-4,5,6,7-tetrahydro[2,3-c]pyridin-2-yl]-3-phenyl-propionamide] | ≤ 300 | > 100000
N#Cc1c(NC(=O)CCC2CCCCC2)sc2c1CCN(C(=O)Cc1ccccn1)C2 [Example 53, N-[3-Cyano-6-(2-pyridin-2-yl-ethanoyl)-4,5,6,7-tetrahydro-thieno[2,3-c]pyridin-2-yl]-3-cyclohexyl-propionamide] | ≤ 300 | > 100000
CC(CC(=O)Nc1sc2c(c1C#N)CCN(C(=O)CCn1ccnc1)C2)c1ccccc1 (racemic) [Example 31] | 300 to 2000 | > 100000
N#Cc1c(NC(=O)CCc2ccco2)sc2c1CCN(C(=O)CCc1cccnc1)C2 [Example 12, N-[3-Cyano-4-6-(3-pyridin-3-yl-propanoyl)-4,5,6,7-tetrahydro-thieno[2,3-c]pyridin-2-yl]-3-furan-2-yl-propionamide] | ≤ 300 | > 100000
N#Cc1c(NC(=O)CCc2ccccc2)sc2c1CCN(C(=O)CCc1cccnc1)C2 [Example 1, N-[3-Cyano-6-(3-pyridn3-yl-propanoyl)-4,5,6,7-tetrahydro-thieno[2,3-c]pyridin-2-yl]-3-phenyl-propionamide] | 300 to 2000 | > 100000
Cc1nc2ccccc2n1CCC(=O)N1CCc2c(sc(NC(=O)CCc3ccccc3)c2C#N)C1 [Example 21] | 300 to 2000 | > 100000
CC(CC(=O)Nc1sc2c(c1C#N)CCN(C(=O)CCc1cccnc1)C2)c1ccccc1 (racemic) [Example 25, (RS)—N-[3-Cyano-6-(3-pyridin-3-yl-propanoyl)-4,5,6,7-tetrahydro-thieno[2,3-c]pyridin-2-yl]-3-phenyl-butyramide] | 300 to 2000 | > 100000
CC(CC(=O)Nc1sc2c(c1C#N)CCN(C(=O)Cn1ccnc1)C2)c1ccccc1 (racemic) [Example 26] | 300 to 2000 | > 100000
Cc1cn(CC(=O)N2CCc3c(sc(NC(=O)CCc4ccccc4)c3C#N)C2)c(C)n1 [Example 43, N-{3-Cyano 6-[2-(2,4-dimethyl-imidazol-1-yl)-ethanoyl]-4,5,6,7-tetrahydro-thieno[2,3-c]pyridin-2-yl}-3-phenyl-propionamide] | 300 to 2000 | ≥ 40000
N#Cc1c(NC(=O)CCc2ccccc2)sc2c1CCN(C(=O)CCc1ccncc1)C2 [Example 39, N-[3-Cyano-6-(3-pyridin-4-yl-propanoyl)-4,5,6,7-tetrahydro-thieno[2,3-c]pyridin-2-yl]-3-phenyl-propionamide] | ≤ 300 | > 100000
CC(CC(=O)Nc1sc2c(c1C#N)CCN(C(=O)CCc1ccccn1)C2)c1ccccc1 (racemic) [Example 29, (RS)—N-[3-Cyano-6-(3-pyridin-2-yl-propanoyl)-4,5,6,7-tetrahydro-thieno[2,3-c]pyridin-2-yl]-3-phenyl-butyramide] | 300 to 2000 | > 100000
Cc1nccn1CC(=O)N1CCc2c(sc(NC(=O)CCc3ccccc3)c2C#N)C1 [Example 38, N-{3-Cyano-6-[2-(2-methyl-imidazol-1-yl)-ethanoyl]-4,5,6,7-tetrahydro-thieno[2,3-c]pyridin-2-yl}-3-phenyl-propionamide] | ≤ 300 | > 100000
CC(CC(=O)Nc1sc2c(c1C#N)CCN(C(=O)Cc1ccccn1)C2)c1ccccc1 (racemic) [Example 22, (RS)—N-[3-Cyano-6-(2-pyridin-2-yl-ethanoyl)-4,5,6,7-tetrahydro-thieno[2,3-c]pyridin-2-yl]-3-phenyl-butyramide] | ≤ 300 | > 100000
CC(CC(=O)Nc1sc2c(c1C#N)CCN(C(=O)Cc1ccncc1)C2)c1ccccc1 (racemic) [Example 24, (RS)—N-[3-Cyano-6-(2-pyridin-4-yl-ethanoyl)-4,5,6,7-tetrahydro-thieno[2,3-c]pyridin-2-yl]-3-phenyl-butyramide] | ≤ 300 | > 100000
